Values of other authors as cited in US20080103118A1, “COMPOSITION FOR IMPROVING BLOOD CHOLESTEROL LEVELS” (IOMEDIX DEVELOPMENT INTERNATIONAL SRL, priority 2006, published 2008).

Conditions: 117 individuals, 63 Niacin, 54 placebo

## O=C(O)c1cccnc1 [Niacin, nicotinic acid]
  high-density lipoprotein cholesterol (HDL-C): increase
  low-density lipoprotein cholesterol (LDL-C): decrease
  total cholesterol: decrease
  triglyceride levels: decrease
